According to US7189724B2, “Quinoxaline derivatives having antiviral activity” (Valeant Research and Development, priority 2003, dated 2007):
pEC50, pIC50: −log10 of the molar value. Where two headings read alike, the source gives them in different places.

How the values were obtained:
[1] = tested on: HCV replicon RNA in replicon cells (Huh-7); assay: HCV Replicon Assay (reduction of HCV RNA, QuantiGene); format: cell-based; conditions: Hepatitis C virus; for pIC50: read-out: HCV Replicon (IC50); for pEC50: first part of Table 1 (scaffold drawing 18)
Method: The anti-HCV activity of the quinoxaline derivatives was tested by replicon and BVDV cell-line based assays. The HCV NS5B polymerase activity was tested as described below, and was further tested for its capability of inhibition of replication of the hepatitis C virus in a cell-line based HCV replicon assay as described in V. Lohmann, F. Komer, J.-O. Koch, U. Herian, L. Theilmann, R. Bartenschlager, “Replication of a Subgenomic Hepatitis C virus RNAs in a Hepatoma Cell Line”, Science, 1999, 285:110.
HCV Replicon Assay. The replicon cells (Huh-7) contain replicating HCV replicon RNA, which was modified in the structural region (replacing the structural region with a neomycin resistance marker). Survival of the replicon cells under G418 selection relies on the replication of HCV RNA and subsequently expression of neomycin phosphoryltransferase. The ability of modified nucleoside libraries and compounds to suppress HCV RNA replication was determined using the QuantiGene™ Assay Kit (Bayer Diagnostics, Tarrytown N.Y.). The assay measures the reduction of HCV RNA molecules in the treated cells. Replicon cells were incubated at 37° C. for 3 days in the presence of nucleoside libraries and compounds before being harvested for detection. The assay protocol was modified based on literature procedure (V. Lohmann, F. Komer, J. O. Koch, U. Herian, L. Theilmann, R. Bartenschlager, Science, 1999, 285, 110–113). The HCV subgenomic replicon cell line was provided by Dr. R. Bartenschlager.

[2] = target: T1, HCV NS5B polymerase (Hepatitis C virus genotype 1b, UniProt Q9WMX2); assay: De novo RNA synthesis activity assay for HCV NS5B polymerase; format: biochemical, HCV-1b CON1 strain
T1 construct: HCV NS5B was derived from a cDNA clone encoding HCV-1b CON1 strain, and was expressed and purified from E. coli; made in house; host or cells: E. coli
T1 sequence (Q9WMX2 2420-3010): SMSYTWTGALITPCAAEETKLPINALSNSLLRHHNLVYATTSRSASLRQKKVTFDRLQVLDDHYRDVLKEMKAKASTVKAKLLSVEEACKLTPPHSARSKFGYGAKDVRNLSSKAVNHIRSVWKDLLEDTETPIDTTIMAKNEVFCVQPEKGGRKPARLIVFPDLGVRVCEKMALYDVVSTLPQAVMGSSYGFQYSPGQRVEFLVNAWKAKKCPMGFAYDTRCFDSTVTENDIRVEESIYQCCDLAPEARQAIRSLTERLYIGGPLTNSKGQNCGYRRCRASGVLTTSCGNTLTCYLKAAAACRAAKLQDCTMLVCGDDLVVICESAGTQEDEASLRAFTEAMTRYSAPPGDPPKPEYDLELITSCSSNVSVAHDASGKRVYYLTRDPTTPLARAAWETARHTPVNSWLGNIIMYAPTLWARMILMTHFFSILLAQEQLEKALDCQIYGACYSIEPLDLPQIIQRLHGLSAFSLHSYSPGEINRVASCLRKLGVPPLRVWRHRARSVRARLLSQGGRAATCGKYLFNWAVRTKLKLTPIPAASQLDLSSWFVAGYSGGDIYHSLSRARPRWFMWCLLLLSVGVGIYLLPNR
Description: HCV NS5B was derived from a cDNA clone encoding HCV-1b CON1 strain, and was expressed and purified from E. coli. Various [α-^33P]rNTPs (3000 Ci/mmol) were purchased from Perkin Elmer. 3′-Deoxy ribonucleosides, their 5′-triphosphates and dinucleotide primers were from Sigma, TriLink (San Diego, Calif.) or ICN Biochemicals. All other reagents were of the highest grade available from ICN, Sigma, Fisher, or Ambion.
An HCV mini-genome of 2.1-kb contains an entire 5′-UTR (untranslated region), part of NS5B sequence and an entire 3′-UTR was constructed from an internal deletion between two KpnI sites on the HCV replicon plasmid, pFK389/NS3-3′. To generate the in vitro transcribed mini-genome RNA, the plasmid DNA was linearized with AseI and ScaI and transcribed in vitro using a MegaScript kit (Ambion, Austin, Tex.). After phenol-chloroform extraction and isopropanol precipitation, the RNA was resuspended in RNase-free water and stored at −80° C. before use. This HCV strain CON1-based template was used for the standard NS5B-catalyzed RNA synthesis assay.
A standard NS5B activity assay was performed at 23C in a total volume of 25 μl. The reaction buffer contained 50 mM Tris, pH 7.0, 10 mM MgCl2, 50 mM NaCl, 5 mM DTT (add fresh) and 0.05 mg/ml BSA. 0.4 μg of the RNA template was incubated with NS5B enzyme (250 nM) before adding a mixture of radiolabeled nucleotide (0.2 μCi) and cold nucleotide cocktail to initiate a reaction. The assay was incubated for 1 hr and terminated by addition of 75 μl of 5% trichloroacetic acid (TCA) and 0.05% pyrophosphate solution. The quenched solution was incubated at room temperature for 10 min to precipitate out polymeric products and subsequently transferred to a 96-well white GF/B filter microplate (Packard Instrument) using a Packard Filtermate Universal Harvester. The filter plate was washed five times by water and one time by ethanol before vacuum drying. 40 μl of liquid scintillation cocktail (Packard MicroSint™) was added to each well. Radioactivity incorporated into the product was counted in a 96-well format using a Packard TopCount. IC50 values, defined as the inhibitor concentration to suppress 50% of NS5B activity, were determined by varying the compound concentration. The results in Table 1 are data obtained using the HCV NS5B assays described above.

[3] = 72 h, Huh-7 replicon cells, 3 days at 37° C., second part of Table 1 (scaffold drawing 19)
[4] = NS5B 250 nM, 23C, 1 hr, second part of Table 1 (scaffold drawing 19), read-out: HCV NS5B (EC50)
[5] = 72 h, Huh-7 replicon cells, 3 days at 37° C.

Structure (SMILES) | pIC50 [1, 3] | pEC50 [2] | pEC50 [2, 4] | also measured
COC(=O)c1ccc2nc(-c3ccc(F)cc3)c(-c3ccc(F)cc3)nc2c1 | < 4.30 | < 4.30 |  | 
O=C(O)c1ccc2nc(-c3ccccc3)c(-c3ccccc3)nc2c1 | < 4.30 | > 5.00 |  | 
O=C(N[C@@H](Cc1c[nH]c2ccccc12)C(=O)O)c1ccc2nc(-c3ccccc3)c(-c3ccccc3)nc2c1 |  | 4.30 to 5.00 |  | 
O=C(N[C@@H](Cc1c[nH]c2ccc(O)cc12)C(=O)O)c1ccc2nc(-c3ccccc3)c(-c3ccccc3)nc2c1 |  |  | < 4.30 | 
COC(=O)[C@H](Cc1c[nH]c2ccccc12)NC(=O)c1ccc2nc(-c3ccccc3)c(-c3ccccc3)nc2c1 |  |  | < 4.30 | 
O=C(O)c1ccc2nc(-c3ccccn3)c(-c3ccccn3)nc2c1 | < 4.30 | < 4.30 |  | 
COC(=O)[C@H](Cc1c[nH]c2ccccc12)NC(=O)c1ccc2nc(-c3ccccn3)c(-c3ccccn3)nc2c1 | < 4.30 | < 4.30 |  | 
O=C(N[C@@H](Cc1c[nH]c2ccccc12)C(=O)O)c1ccc2nc(-c3ccccn3)c(-c3ccccn3)nc2c1 |  | < 4.30 |  | pIC50 ([1]; Huh-7, 72 h): < 4.30
Cc1ccc(-c2nc3cc(C(=O)O)ccc3nc2-c2ccc(Cl)cc2)cc1 |  |  | > 5.00 | pIC50 ([1]; Huh-7, 72 h): 4.30 to 5.00
Cc1ccc(-c2nc3cc(C(=O)N[C@@H](Cc4c[nH]c5ccc(O)cc45)C(=O)O)ccc3nc2-c2ccc(Cl)cc2)cc1 |  |  | > 5.00 | 
NC(=O)[C@H](Cc1c[nH]c2ccc(O)cc12)NC(=O)c1ccc2nc(-c3ccc(F)cc3)c(-c3ccc(F)cc3)nc2c1 [R=NH2, X=OH] |  |  |  | pEC50 [1, 5]: 4.30 to 5.00; pIC50 [2]: > 5.00
COC(=O)[C@H](Cc1c[nH]c2ccc(O)cc12)NC(=O)c1ccc2nc(-c3ccc(F)cc3)c(-c3ccc(F)cc3)nc2c1 [R=OCH3, X=OH] |  |  |  | pEC50 [1, 5]: 4.30 to 5.00; pIC50 [2]: > 5.00
O=C(N[C@@H](Cc1c[nH]c2ccc(O)cc12)C(=O)O)c1ccc2nc(-c3ccc(F)cc3)c(-c3ccc(F)cc3)nc2c1 [R=OH, X=OH] |  |  |  | pEC50 [1, 5]: 4.30 to 5.00; pIC50 [2]: > 5.00
